Measurements: patent US20070167628A1, “Thiazole-2-carboxamide derivatives for use as hippar agonists in the treatment of i.a. dyslipidemia” (priority 2003, published 2007)

Columns and labels:
Assay type in all cases: cell-based
Settings in all cases: SPAP reporter
HPPARδ = target: T1, HPPARδ (Homo sapiens, UniProt Q03181); assay: Transient transfection (transactivation) assay, hPPAR delta-GAL4 chimera in CV-1 cells
T1 construct: expressed in transfected cells; host or cells: CV-1 cells
T1 sequence (Q03181 211-439 limits assumed): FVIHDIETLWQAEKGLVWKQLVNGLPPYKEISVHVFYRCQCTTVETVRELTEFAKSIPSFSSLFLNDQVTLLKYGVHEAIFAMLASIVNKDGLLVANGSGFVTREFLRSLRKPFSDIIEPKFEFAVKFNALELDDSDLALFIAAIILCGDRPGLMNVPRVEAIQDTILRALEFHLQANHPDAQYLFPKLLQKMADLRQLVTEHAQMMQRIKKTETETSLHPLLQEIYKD
Excerpt: (§1) Compounds were screened for functional potency in transient transfection assays in CV-1 cells for their ability to activate the PPAR subtypes (transactivation assay). A previously established chimeric receptor system was utilized to allow comparison of the relative transcriptional activity of the receptor subtypes on the same target gene and to prevent endogenous receptor activation from complicating the interpretation of results. See, for example, Lehmann, J. M.; Moore, L. B.; Smith-Oliver, T. A.; Wilkison, W. O.; Willson, T. M.; Kliewer, S. A., An antidiabetic thiazolidinedione is a high affinity ligand for peroxisome proliferator-activated receptor gamma (PPARgamma), J. Biol. Chem., 270, 12953-6 (1995). The ligand binding domains for murine and human PPAR alpha, PPAR gamma, and PPAR delta were each fused to the yeast transcription factor GAL4 DNA binding domain. CV-1 cells were transiently transfected with expression vectors for the respective PPAR chimera along with a reporter construct containing five copies of the GAL4 DNA binding site driving expression of secreted placental alkaline phosphatase (SPAP) and beta-galactosidase. After 16 h, the medium was exchanged to DME medium supplemented with 10% delipidated fetal calf serum and the test compound at the appropriate concentration. […]

HPPARα = target: T2, HPPARα (Homo sapiens, UniProt Q07869); assay: Transient transfection (transactivation) assay, hPPAR alpha-GAL4 chimera in CV-1 cells
T2 construct: expressed in transfected cells; host or cells: CV-1 cells
T2 sequence (Q07869 239-466 limits assumed): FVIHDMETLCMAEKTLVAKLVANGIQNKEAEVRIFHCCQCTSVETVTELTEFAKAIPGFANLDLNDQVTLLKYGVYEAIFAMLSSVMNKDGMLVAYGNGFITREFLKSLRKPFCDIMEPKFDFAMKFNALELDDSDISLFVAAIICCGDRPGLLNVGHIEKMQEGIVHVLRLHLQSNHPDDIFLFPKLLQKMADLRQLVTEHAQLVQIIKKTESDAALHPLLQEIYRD
Excerpt: as §1

HPPARγ = target: T3, HPPARγ (Homo sapiens, UniProt P37231); assay: Transient transfection (transactivation) assay, hPPAR gamma-GAL4 chimera in CV-1 cells
T3 construct: expressed in transfected cells; host or cells: CV-1 cells
T3 sequence (P37231 238-503 limits assumed): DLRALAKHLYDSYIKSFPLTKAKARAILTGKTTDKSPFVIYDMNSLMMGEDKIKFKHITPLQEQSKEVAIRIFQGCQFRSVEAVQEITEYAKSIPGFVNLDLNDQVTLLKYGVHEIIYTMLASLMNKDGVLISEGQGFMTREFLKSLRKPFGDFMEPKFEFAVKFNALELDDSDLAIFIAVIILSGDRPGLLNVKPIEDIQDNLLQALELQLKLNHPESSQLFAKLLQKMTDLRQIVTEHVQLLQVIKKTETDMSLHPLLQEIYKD
Excerpt: as §1

EC50 (HPPARδ): 6.1 µM
EC50 (HPPARα): 0.008 µM
EC50 (HPPARγ): 0.19 µM
Compound: Cc1nc(C(=O)NCc2ccc(OC(C)(C)C(=O)O)cc2)sc1-c1ccc(C(C)C)cc1 [Example 1, 2-methyl-2-[(4-{[({4-methyl-5-[4-(1-methylethyl)phenyl]-1,3-thiazol-2-yl}carbonyl)amino]methyl}phenyl)oxy]propanoic acid]
